Test results published in ChEMBL document CHEMBL4420066, “Aryl amine substituted quinoxaline used as anticancer drugs” (2017).
Calls of active or inactive are those of the source. The rule behind the calls is not given here.

What was measured:
[1] = system: HA22T cell line; test: Induction of apoptosis in human HA22T cells assessed as induction of DNA fragmentation at 1 uM incubated for 24 hrs by ELISA; type: functional, cell-based
[2] = system: SK-HEP1; test: Induction of apoptosis in human SKHEP1 cells assessed as accumulation at subG1 phase at 0.5 to 4 uM by flow cytometry; type: functional, cell-based
[3] = system: Hep 3B2; test: Induction of apoptosis in human Hep3B cells >= 2 uM incubated for 48 hrs by annexin-V-FITC staining based by flow cytometry relative to control; type: functional
[4] = Induction of apoptosis in human PLC5 cells >= 2 uM incubated for 48 hrs by annexin-V-FITC staining based by flow cytometry relative to control; type: functional
[5] = system: HA22T cell line; test: Induction of necrosis in human HA22T cells >= 2 uM incubated for 48 hrs by annexin-V-FITC staining based by flow cytometry relative to control; type: functional
[6] = system: SK-HEP1; test: Induction of necrosis in human SKHEP1 cells >= 2 uM incubated for 48 hrs by annexin-V-FITC staining based by flow cytometry relative to control; type: functional
[7] = species on record: Homo sapiens; test: Induction of apoptosis in human PLC5 cells assessed as caspase-9 activation at 0.5 to 4 uM incubated for 48 hrs by Western blotting analysis; type: functional, cell-based
[8] = system: SK-HEP1; test: Induction of apoptosis in human SKHEP1 cells assessed as caspase-9 activation at 0.5 to 4 uM incubated for 48 hrs by Western blotting analysis; type: functional, cell-based
[9] = species on record: Homo sapiens; test: Induction of apoptosis in human PLC5 cells assessed as caspase-3 activation at 0.5 to 4 uM incubated for 48 hrs by Western blotting analysis; type: functional, cell-based
[10] = system: HA22T cell line; test: Induction of apoptosis in human HA22T cells assessed as induction of PARP cleavage at 0.5 to 4 uM incubated for 48 hrs by Western blotting analysis; type: functional, cell-based
[11] = system: SK-HEP1; test: Induction of apoptosis in human SKHEP1 cells assessed as induction of PARP cleavage at 0.5 to 4 uM incubated for 48 hrs by Western blotting analysis; type: functional, cell-based
[12] = system: Hep 3B2; test: Induction of apoptosis in human Hep3B cells assessed as induction of DNA fragmentation at 1 uM incubated for 24 hrs by ELISA; type: functional, cell-based
[13] = system: SK-HEP1; test: Induction of apoptosis in human SKHEP1 cells assessed as induction of DNA fragmentation at 1 uM incubated for 24 hrs by ELISA; type: functional, cell-based
[14] = system: HA22T cell line; test: Inhibition of CIP2A protein expression in human HA22T cells assessed as CIP2A protein expression ratio level at 0.5 uM by Western blotting analysis (Rvb =1); type: functional
[15] = system: HA22T cell line; test: Inhibition of CIP2A protein expression in human HA22T cells assessed as CIP2A protein expression ratio level at 2 uM by Western blotting analysis (Rvb =1); type: functional
[16] = system: Hep 3B2; test: Inhibition of CIP2A protein expression in human Hep3B cells assessed as CIP2A protein expression ratio level at 0.5 uM by Western blotting analysis (Rvb =1); type: functional
[17] = system: Hep 3B2; test: Inhibition of CIP2A protein expression in human Hep3B cells assessed as CIP2A protein expression ratio level at 4 uM by Western blotting analysis (Rvb =1); type: functional
[18] = system: HA22T cell line; test: Inhibition of CIP2A protein expression in human HA22T cells by Western blotting analysis; type: functional, cell-based
[19] = target: T1, Serine/threonine-protein kinase AKT (Homo sapiens) (UniProt P31751+Q9Y243+P31749); test: Inhibition of Akt phosphorylation at S473 residue in human Hep3B cells by Western blotting analysis; type: cell-based
T1 sequence (P31749 whole entry, looked up): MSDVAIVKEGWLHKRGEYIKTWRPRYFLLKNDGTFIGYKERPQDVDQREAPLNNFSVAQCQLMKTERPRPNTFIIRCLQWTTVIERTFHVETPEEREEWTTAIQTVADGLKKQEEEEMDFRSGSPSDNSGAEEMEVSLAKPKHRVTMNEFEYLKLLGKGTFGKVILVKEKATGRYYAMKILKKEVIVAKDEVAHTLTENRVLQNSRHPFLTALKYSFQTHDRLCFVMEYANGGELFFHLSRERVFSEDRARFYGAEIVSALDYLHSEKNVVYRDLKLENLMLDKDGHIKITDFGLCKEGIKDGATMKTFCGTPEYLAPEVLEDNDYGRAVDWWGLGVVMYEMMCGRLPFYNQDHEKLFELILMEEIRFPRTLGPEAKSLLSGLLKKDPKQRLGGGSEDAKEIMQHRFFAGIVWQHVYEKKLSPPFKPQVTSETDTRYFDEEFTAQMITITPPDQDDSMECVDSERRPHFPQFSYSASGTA
T1 sequence (P31751 whole entry, looked up): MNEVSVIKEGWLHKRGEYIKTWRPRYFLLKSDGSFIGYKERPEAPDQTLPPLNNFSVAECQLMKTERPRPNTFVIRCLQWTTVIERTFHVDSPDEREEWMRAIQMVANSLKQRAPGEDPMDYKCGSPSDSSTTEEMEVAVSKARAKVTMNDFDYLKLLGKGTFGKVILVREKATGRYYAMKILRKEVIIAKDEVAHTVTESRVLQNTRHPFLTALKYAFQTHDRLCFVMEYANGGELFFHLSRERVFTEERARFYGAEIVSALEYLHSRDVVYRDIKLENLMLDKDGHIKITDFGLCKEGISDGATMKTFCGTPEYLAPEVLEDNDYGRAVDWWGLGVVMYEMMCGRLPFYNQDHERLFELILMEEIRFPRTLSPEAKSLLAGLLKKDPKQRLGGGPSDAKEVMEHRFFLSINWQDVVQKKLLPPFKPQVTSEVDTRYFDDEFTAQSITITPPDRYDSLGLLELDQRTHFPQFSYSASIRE
T1 sequence (Q9Y243 whole entry, looked up): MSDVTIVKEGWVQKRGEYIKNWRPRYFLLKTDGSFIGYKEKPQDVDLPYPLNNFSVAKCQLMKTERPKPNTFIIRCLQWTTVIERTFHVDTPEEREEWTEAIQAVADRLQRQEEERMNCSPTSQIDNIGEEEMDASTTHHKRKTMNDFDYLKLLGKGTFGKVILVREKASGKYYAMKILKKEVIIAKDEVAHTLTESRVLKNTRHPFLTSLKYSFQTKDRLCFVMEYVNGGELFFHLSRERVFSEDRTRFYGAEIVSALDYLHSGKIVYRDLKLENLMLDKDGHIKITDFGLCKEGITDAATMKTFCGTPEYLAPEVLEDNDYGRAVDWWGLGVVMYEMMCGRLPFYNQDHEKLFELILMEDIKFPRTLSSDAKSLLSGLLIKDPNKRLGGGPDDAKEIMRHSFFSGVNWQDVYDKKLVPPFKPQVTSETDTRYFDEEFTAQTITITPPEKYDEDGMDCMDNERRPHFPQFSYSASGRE

[20] = target: T1, Serine/threonine-protein kinase AKT (Homo sapiens); test: Inhibition of Akt phosphorylation at S473 residue in human PLC5 cells by Western blotting analysis; type: cell-based
[21] = target: T1, Serine/threonine-protein kinase AKT (Homo sapiens); test: Inhibition of Akt phosphorylation at S473 residue in human HA22T cells at 1 uM by Western blotting analysis; type: cell-based; conditions: TDE = time-dependent effect
[22] = species on record: Homo sapiens; test: Activation of PP2A in human PLC5 cells assessed as increase in protein phosphatase activity at 1 uM incubated for 24 hrs using phosphopeptide substrate incubated for 10 mins by malachite green-phosphate complex assay; type: cell-based
[23] = species on record: Homo sapiens; test: Activation of PP2A in human Hep3B cells assessed as increase in protein phosphatase activity at 1 uM incubated for 24 hrs using phosphopeptide substrate incubated for 10 mins by malachite green-phosphate complex assay; type: cell-based
[24] = species on record: Homo sapiens; test: Activation of PP2A in human SKHEP1 cells assessed as increase in protein phosphatase activity at 1 uM incubated for 24 hrs using phosphopeptide substrate incubated for 10 mins by malachite green-phosphate complex assay; type: cell-based
[25] = species on record: Homo sapiens; test: Inhibition of PP2A-B5 protein expression in human PLC5 cells at 1 uM incubated for 24 hrs by Western blotting analysis; type: functional, cell-based
[26] = system: Hep 3B2; test: Inhibition of PP2A-A protein expression in human Hep3B cells at 1 uM incubated for 24 hrs by Western blotting analysis; type: functional, cell-based
[27] = target: T1, Serine/threonine-protein kinase AKT (Homo sapiens); test: Inhibition of Akt phosphorylation at S473 residue in human PLC5 cells at 2 uM incubated for 24 hrs in presence of 100 nM PP2A inhibitor okadaic acid by Western blotting analysis; type: cell-based
[28] = species on record: Homo sapiens; test: Induction of apoptosis in human PLC5 cells at 2 uM incubated for 24 hrs in presence of PP2A-C siRNA by annexin-V-FITC staining based by flow cytometry; type: functional, cell-based
[29] = species on record: Homo sapiens; test: Inhibition of CIP2A mRNA expression in human PLC5 cells at 1 to 4 uM by RT-PCR analysis; type: functional, cell-based
[30] = species on record: Homo sapiens; test: Inhibition of human CIP2A gene promoter activity in human PLC5 cells by luciferase reporter gene assay; type: cell-based
[31] = species on record: Homo sapiens; test: Inhibition of CIP2A protein expression in human PLC5 cells at 2 uM by Western blotting analysis; type: functional, cell-based
[32] = species on record: Homo sapiens; test: Inhibition of ELK1 protein expression in human PLC5 cells at 2 uM by Western blotting analysis; type: functional, cell-based
[33] = species on record: Homo sapiens; test: Inhibition of human CIP2A gene promoter in human PLC5 cells assessed as inhibition of ELK1 protein expression by Western blotting analysis; type: cell-based
[34] = system: Homo sapiens; test: Antitumor activity against human PLC5 cells xenografted in mouse assessed as reduction in tumor size at 10 mg/kg dosed for 4 weeks; type: functional, organism-based
[35] = system: Mus musculus; test: Activation of PP2A activity in tumor of human PLC5 cells xenografted in mouse at 10 mg/kg dosed for 4 weeks; type: functional, organism-based
[36] = system: Mus musculus; test: Suppression of Akt phosphorylation at S473 residue in tumor of human PLC5 cells xenografted in mouse at 10 mg/kg dosed for 4 weeks by Western blot analysis; type: functional, organism-based
[37] = species on record: Homo sapiens; test: Cytotoxicity against human PLC5 cells assessed as reduction in cell viability at 0.5 to 4 uM incubated for 48 hrs by MTT assay; type: functional, cell-based
[38] = species on record: Homo sapiens; test: Inhibition of His-tagged recombinant human SET1 protein (1 to 290 amino acids) expressed in Escherichia coli interaction with N-terminal GST-tagged recombinant human PP2A-C (1 to 309 amino acids) assessed as minimal concentration causing disruption of SET-PP2Ac binding by SPR assay
[39] = species on record: Homo sapiens; test: Activation of PP2A in human Hep3B cells assessed as minimal concentration causing increase in protein phosphatase activity incubated for 24 hrs using phosphopeptide substrate incubated for 10 mins by malachite green-phosphate complex assay; type: cell-based

What does the source list for `C#Cc1cccc(Nc2nc3ccccc3nc2Nc2cccc(C#C)c2)c1`?
Activity [1]: Active; Activity [2]: Active; Activity [3]: 50%; Activity [4]: 50%; Activity [5]: 50%; Activity [6]: 50%; Activity [7]: Dose-dependent effect; Activity [8]: Dose-dependent effect; Activity [9]: Dose-dependent effect; Activity [10]: Dose-dependent effect; Activity [11]: Dose-dependent effect; Activity [12]: Active; Activity [13]: Active; Ratio [14]: 0.99; Ratio [15]: 0.36; Ratio [16]: 0.87; Ratio [17]: 0.13; inhibition [18]: Dose-dependent effect; inhibition [19]: Dose-dependent effect; inhibition [20]: Dose-dependent effect; inhibition [21]: Tde; Activity [22]: Active; Activity [23]: Active; Activity [24]: Active; inhibition [25]: inactive; inhibition [26]: inactive; inhibition [27]: inactive; Activity [28]: inactive; inhibition [29]: Active; inhibition [30]: Dose-dependent effect; inhibition [31]: inactive; inhibition [32]: inactive; inhibition [33]: Dose-dependent effect; Activity [34]: Active; Activity [35]: Active; Activity [36]: Active; Activity [37]: Active; MEC [38]: 100 to 200 nM; MEC [39]: 100 to 200 nM
